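Cultured in 96-well plates, cells were exposed to test compound for 48 hours across five concentrations. Abbreviation: GI50, concentration required for 50% inhibition of growth.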 Calls of active or inactive are those of the source. Rule as the data show it: active = GI50 up to about 1.1 µM and inactive = higher.
Legend:
Assay in all cases: inhibition of tumour cell growth, NCI panel, 48 h
CCRF-CEM = tested on: CCRF-CEM
SF-295 = tested on: SF-295
HCT-15 = tested on: HCT-15
SNB-75 = tested on: SNB-75
OVCAR-8 = tested on: OVCAR-8
HCC 2998 = tested on: HCC 2998
SR = tested on: SR
MDA-MB-231 = tested on: MDA-MB-231
IGROV-1 = tested on: IGROV-1
RXF 393 = tested on: RXF 393
ACHN = tested on: ACHN
MCF7 = tested on: MCF7
HOP-92 = tested on: HOP-92
SK-MEL-5 = tested on: SK-MEL-5
A498 = tested on: A498
UACC-257 = tested on: UACC-257
OVCAR-3 = tested on: OVCAR-3
Hs-578T = tested on: Hs-578T
U-251 = tested on: U-251
SF-268 = tested on: SF-268
K562 = tested on: K562
NCI-H23 = tested on: NCI-H23
TK-10 = tested on: TK-10
SNB-19 = tested on: SNB-19
SF-539 = tested on: SF-539
OVCAR-4 = tested on: OVCAR-4
HL-60 = tested on: HL-60
786-0 = tested on: 786-0
SK-OV-3 = tested on: SK-OV-3
NCI-H460 = tested on: NCI-H460
NCI-H522 = tested on: NCI-H522
M14 = tested on: M14
HCT-116 = tested on: HCT-116
OVCAR-5 = tested on: OVCAR-5
A549 = tested on: A549
CAKI-1 = tested on: CAKI-1
NCI/ADR-RES = tested on: NCI/ADR-RES
SW-620 = tested on: SW-620
T47D = tested on: T47D
HOP-62 = tested on: HOP-62
RPMI-8226 = tested on: RPMI-8226
SK-MEL-28 = tested on: SK-MEL-28
SK-MEL-2 = tested on: SK-MEL-2
EKVX = tested on: EKVX
UO-31 = tested on: UO-31
NCI-H226 = tested on: NCI-H226
KM12 = tested on: KM12
COLO 205 = tested on: COLO 205
PC-3 = tested on: PC-3
LOX IMVI = tested on: LOX IMVI
Malme-3M = tested on: Malme-3M
HT-29 = tested on: HT-29
MOLT-4 = tested on: MOLT-4
SN12C = tested on: SN12C
UACC-62 = tested on: UACC-62
DU-145 = tested on: DU-145
MDA-MB-435 = tested on: MDA-MB-435

`COc1ccc2cc1Oc1ccc(cc1)C[C@@H]1c3cc(c(OC)cc3CCN1C)Oc1c(OC)c(OC)cc3c1[C@H](C2)N(C)CC3` [ISOTETRANDRINE] was tested, and the GI50 (CCRF-CEM) was 16.9 µM (inactive), the GI50 (SF-295) was 16.3 µM (inactive) and the GI50 (HCT-15) was 11.2 µM. For the same molecule, the GI50 (SNB-75) was 12.4 µM (inactive), the GI50 (OVCAR-8) was 17.9 µM (inactive) and the GI50 (HCC 2998) was 12.7 µM (inactive). For the same molecule, the GI50 (SR) was 2.41 µM (inactive), the GI50 (MDA-MB-231) was 14.7 µM (inactive) and the GI50 (IGROV-1) was 20.7 µM (inactive). The GI50 (RXF 393) was 1.44 µM (inactive), the GI50 (ACHN) was 13.4 µM (inactive) and the GI50 (MCF7) was 14 µM (inactive). For the same molecule, the GI50 (HOP-92) was > 10 µM (inactive), the GI50 (SK-MEL-5) was 11.8 µM (inactive) and the GI50 (A498) was 19.7 µM (inactive). The GI50 (UACC-257) was 11.3 µM (inactive), the GI50 (OVCAR-3) was 18.2 µM (inactive) and the GI50 (Hs-578T) was 16.7 µM (inactive). For the same molecule, the GI50 (U-251) was 22.2 µM (inactive), the GI50 (SF-268) was 21.7 µM (inactive) and the GI50 (K562) was 4.16 µM (inactive). The GI50 (NCI-H23) was 15.8 µM (inactive), the GI50 (TK-10) was 19.1 µM (inactive) and the GI50 (SNB-19) was 20.4 µM (inactive). The GI50 (SF-539) was 8.89 µM (inactive), the GI50 (OVCAR-4) was 17.9 µM (inactive) and the GI50 (HL-60) was 10.8 µM (inactive). For the same molecule, the GI50 (786-0) was 24.7 µM (inactive), the GI50 (SK-OV-3) was 40.2 µM (inactive) and the GI50 (NCI-H460) was 15.2 µM (inactive). The GI50 (NCI-H522) was 12.6 µM (inactive), the GI50 (M14) was 11.1 µM (inactive) and the GI50 (HCT-116) was 17.7 µM (inactive).

For `O=CC(O)C(O)C(O)C(O)COP(=O)(O)Cc1ccccc1` (stereo not drawn), the GI50 (SNB-75) was > 10 µM (inactive), the GI50 (SR) was > 10 µM (inactive) and the GI50 (RXF 393) was > 10 µM (inactive). For the same molecule, the GI50 (ACHN) was > 10 µM (inactive), the GI50 (OVCAR-5) was > 10 µM (inactive) and the GI50 (A549) was > 10 µM (inactive). The GI50 (MCF7) was > 10 µM (inactive), the GI50 (SK-MEL-5) was > 10 µM (inactive) and the GI50 (CAKI-1) was > 10 µM (inactive). The GI50 (U-251) was > 10 µM (inactive), the GI50 (NCI/ADR-RES) was > 10 µM (inactive) and the GI50 (SW-620) was > 10 µM (inactive). For the same molecule, the GI50 (T47D) was > 10 µM (inactive), the GI50 (SF-268) was > 10 µM (inactive) and the GI50 (K562) was > 10 µM (inactive). For the same molecule, the GI50 (NCI-H23) was > 10 µM (inactive), the GI50 (HOP-62) was > 10 µM (inactive) and the GI50 (RPMI-8226) was > 10 µM (inactive). For the same molecule, the GI50 (OVCAR-4) was > 10 µM (inactive), the GI50 (SK-MEL-28) was > 10 µM (inactive) and the GI50 (786-0) was > 10 µM (inactive). For the same molecule, the GI50 (SK-MEL-2) was > 10 µM (inactive), the GI50 (SK-OV-3) was > 10 µM (inactive) and the GI50 (NCI-H460) was > 10 µM (inactive).

In the case of `COc1cc(/C=N/N=C(\N)NO)cc(OC)c1OC`, the GI50 (EKVX) is reported as 19.6 µM (inactive), the GI50 (UO-31) is reported as 33.1 µM (inactive) and the GI50 (CCRF-CEM) is reported as 31.8 µM (inactive). The GI50 (SF-295) was 25.2 µM (inactive), the GI50 (HCT-15) was 28.6 µM and the GI50 (OVCAR-8) was 18.5 µM (inactive). The GI50 (NCI-H226) was 20.5 µM (inactive), the GI50 (KM12) was 18.7 µM (inactive) and the GI50 (HCC 2998) was 36.6 µM (inactive). For the same molecule, the GI50 (SR) was 24.5 µM (inactive), the GI50 (COLO 205) was 12.4 µM (inactive) and the GI50 (PC-3) was 44.6 µM (inactive). For the same molecule, the GI50 (MDA-MB-231) was > 100 µM (inactive), the GI50 (IGROV-1) was 42.7 µM (inactive) and the GI50 (LOX IMVI) was 31.1 µM (inactive). The GI50 (RXF 393) was 52.6 µM (inactive), the GI50 (ACHN) was 21.5 µM (inactive) and the GI50 (OVCAR-5) was 49.5 µM (inactive). The GI50 (Malme-3M) was 22 µM (inactive), the GI50 (A549) was 18.7 µM (inactive) and the GI50 (HT-29) was 22.8 µM (inactive). For the same molecule, the GI50 (MCF7) was 22.6 µM (inactive), the GI50 (HOP-92) was 23.5 µM (inactive) and the GI50 (MOLT-4) was 40.6 µM (inactive). The GI50 (SK-MEL-5) was 20.6 µM (inactive), the GI50 (A498) was 46.3 µM (inactive) and the GI50 (UACC-257) was 43.1 µM (inactive). For the same molecule, the GI50 (CAKI-1) was 72.4 µM (inactive), the GI50 (OVCAR-3) was 21.9 µM (inactive) and the GI50 (Hs-578T) was 42.2 µM (inactive). The GI50 (U-251) was 52.2 µM (inactive), the GI50 (NCI/ADR-RES) was 15.7 µM (inactive) and the GI50 (SN12C) was 33.8 µM (inactive). For the same molecule, the GI50 (SW-620) was 50 µM (inactive), the GI50 (T47D) was 36.6 µM (inactive) and the GI50 (SF-268) was 31.1 µM (inactive). For the same molecule, the GI50 (K562) was 21.6 µM (inactive), the GI50 (NCI-H23) was 38.2 µM (inactive) and the GI50 (HOP-62) was 27.4 µM (inactive). The GI50 (TK-10) was > 100 µM (inactive), the GI50 (RPMI-8226) was 37.2 µM (inactive) and the GI50 (SNB-19) was > 100 µM (inactive). The GI50 (SF-539) was 30.5 µM (inactive), the GI50 (OVCAR-4) was 40.8 µM (inactive) and the GI50 (UACC-62) was 13.5 µM (inactive). For the same molecule, the GI50 (SK-MEL-28) was 57 µM (inactive), the GI50 (HL-60) was 23 µM (inactive) and the GI50 (786-0) was 15.4 µM (inactive). The GI50 (SK-MEL-2) was 54.3 µM (inactive), the GI50 (SK-OV-3) was 67.8 µM (inactive) and the GI50 (NCI-H460) was 28.2 µM (inactive). The GI50 (DU-145) was 26.3 µM (inactive), the GI50 (NCI-H522) was 34.8 µM (inactive) and the GI50 (M14) was 28.4 µM (inactive). The GI50 (MDA-MB-435) was 44.6 µM (inactive) and the GI50 (HCT-116) was 32.1 µM (inactive).
